From ChEMBL document CHEMBL1137314, “Small-molecule inhibitors of the MDM2-p53 protein-protein interaction based on an isoindolinone scaffold” (J Med Chem, 2006)
pIC50: −log10 of the molar value. Activity calls are given as the source filed them. The rule behind the calls is not given here.

What was measured:
[1] = molecular target: Tumour suppressor p53/oncoprotein Mdm2 (Homo sapiens, UniProt Q00987); assay: Inhibition of p53-MDM2 interaction by ELISA; type: protein assay
SJSA-1 [2] = assay: Increase of MDM2 protein level in SJSA cell line by Western blot analysis; type: functional, cell-based; settings: Homo sapiens
SJSA-1 [3] = assay: Increase of p21 protein level in SJSA cell line by Western blot analysis; type: functional, cell-based; settings: Homo sapiens
[4] = molecular target: Tumour suppressor p53/oncoprotein Mdm2 (Homo sapiens) (UniProt P04637+Q00987); assay: Induction of p53 dependent transcription in SJSA cell line by reporter gene assay; type: functional, cell-based; settings: SJSA-1
SJSA-1 [5] = assay: Increase of p53 protein level in SJSA cell line by Western blot analysis; type: functional, cell-based; settings: Homo sapiens

Sequence of Tumour suppressor p53/oncoprotein Mdm2 (P04637 whole entry): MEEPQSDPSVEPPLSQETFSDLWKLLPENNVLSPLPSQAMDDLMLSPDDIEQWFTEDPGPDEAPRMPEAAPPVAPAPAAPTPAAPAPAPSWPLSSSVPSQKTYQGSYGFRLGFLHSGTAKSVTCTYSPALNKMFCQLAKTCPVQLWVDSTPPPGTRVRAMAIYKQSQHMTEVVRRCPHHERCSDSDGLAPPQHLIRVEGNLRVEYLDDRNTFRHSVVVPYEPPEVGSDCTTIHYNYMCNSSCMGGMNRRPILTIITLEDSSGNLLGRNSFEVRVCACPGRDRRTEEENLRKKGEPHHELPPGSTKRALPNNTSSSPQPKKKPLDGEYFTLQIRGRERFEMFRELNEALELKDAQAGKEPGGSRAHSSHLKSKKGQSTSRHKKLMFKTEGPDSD
Sequence of Tumour suppressor p53/oncoprotein Mdm2 (Q00987 whole entry): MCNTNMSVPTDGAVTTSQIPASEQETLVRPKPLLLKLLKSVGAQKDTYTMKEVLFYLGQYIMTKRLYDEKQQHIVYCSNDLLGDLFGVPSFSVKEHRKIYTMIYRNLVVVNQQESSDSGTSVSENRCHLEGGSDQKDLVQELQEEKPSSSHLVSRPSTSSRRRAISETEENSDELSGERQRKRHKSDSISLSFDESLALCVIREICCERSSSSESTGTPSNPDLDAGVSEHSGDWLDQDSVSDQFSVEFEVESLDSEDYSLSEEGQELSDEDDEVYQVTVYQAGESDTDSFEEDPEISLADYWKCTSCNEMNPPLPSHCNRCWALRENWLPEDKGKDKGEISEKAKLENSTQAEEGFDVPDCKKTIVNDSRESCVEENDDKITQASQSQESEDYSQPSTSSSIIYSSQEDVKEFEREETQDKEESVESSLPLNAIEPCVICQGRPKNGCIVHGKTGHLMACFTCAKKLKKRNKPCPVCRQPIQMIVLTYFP
Sequence of Tumour suppressor p53/oncoprotein Mdm2 (Homo sapiens) (P04637 whole entry, looked up): as the sequence (P04637 whole entry) above
Sequence of Tumour suppressor p53/oncoprotein Mdm2 (Homo sapiens) (Q00987 whole entry, looked up): as the sequence (Q00987 whole entry) above

pIC50 [1] | SMILES | also measured
3.55 | CC(=O)NCCOC1(c2ccccc2)c2ccccc2C(=O)N1Cc1ccccc1 (stereo unspecified) | –
3.39 | C=CCNC(=S)NCCOC1(c2ccccc2)c2ccccc2C(=O)N1Cc1ccccc1 (stereo unspecified) | –
3.70 | CCCNC1(c2ccccc2)c2ccccc2C(=O)N1Cc1ccccc1 (stereo unspecified) | –
3.61 | Cc1cccc(N(CCC#N)CCOC2(c3ccccc3)c3ccccc3C(=O)N2Cc2ccccc2)c1 (stereo unspecified) | –
3.42 | COC(=O)C(Cc1ccc(O)cc1)N1C(=O)c2ccccc2C1(OCCOC(C)=O)c1ccccc1 (stereo unspecified) | –
3.56 | COC(=O)C(Cc1ccc(O)cc1)N1C(=O)c2ccccc2C1(OCCn1c([N+](=O)[O-])cnc1C)c1ccccc1 (stereo unspecified) | –
3.72 | O=C1c2ccccc2C(=O)N1CCCOC1(c2ccccc2)c2ccccc2C(=O)N1Cc1ccccc1 (stereo unspecified) | –
< 3.70 | CCCOC1(c2ccccc2)c2ccccc2C(=O)N1CCC (stereo unspecified) | –
4.13 | CCCN1C(=O)c2ccccc2C1(OCCN1CCNC1=O)c1ccc(C(C)(C)C)cc1 (stereo unspecified) | –
3.55 | O=C1c2ccccc2C(OCc2cccc([N+](=O)[O-])c2)(c2ccccc2)N1Cc1ccccc1 (stereo unspecified) | –
4.16 | CCCN1C(=O)c2ccccc2C1(OCCc1ccc(O)cc1)c1ccc(C(C)(C)C)cc1 (stereo unspecified) | –
4.10 | O=C1c2ccccc2C(OCc2ccc(O)cc2)(c2ccccc2)N1Cc1ccccc1 (stereo unspecified) | –
4.24 | O=C1c2ccccc2C(OCc2cccc(O)c2)(c2ccccc2)N1Cc1ccccc1 (stereo unspecified) | –
3.82 | O=C1c2ccccc2C(=O)N1CCOC1(c2ccccc2)c2ccccc2C(=O)N1Cc1ccccc1 (stereo unspecified) | –
3.39 | O=C1c2ccccc2C(OCCNC(=O)C(F)(F)F)(c2ccccc2)N1Cc1ccccc1 (stereo unspecified) | –
3.49 | COc1ccc([C@@H](O)COC2(c3ccccc3)c3ccccc3C(=O)N2CCCO)cc1 (stereo partly specified) | –
3.45 | C=C(C)C(=O)OCCNC1(c2ccccc2)c2ccccc2C(=O)N1Cc1ccccc1 (stereo unspecified) | –
< 3.30 | CCCOC1(c2ccccc2)c2ccccc2C(=O)N1CCO (stereo unspecified) | –
3.36 | C=CC(=O)OCCOC1(c2ccccc2)c2ccccc2C(=O)N1Cc1ccccc1 (stereo unspecified) | –
3.99 | C=C(C)C(=O)OCCN1C(=O)c2ccccc2C1(N[C@@H](CO)[C@@H](O)c1ccccc1)c1ccccc1 (stereo partly specified) | –
3.55 | O=C1CCC(=O)N1CCOC1(c2ccccc2)c2ccccc2C(=O)N1Cc1ccccc1 (stereo unspecified) | –
3.51 | COc1ccc(CCOC2(c3ccccc3)c3ccccc3C(=O)N2Cc2ccccc2)cc1OC (stereo unspecified) | –
4.15 | CCCN1C(=O)c2ccccc2C1(OCc1cc2c(cc1[N+](=O)[O-])OCO2)c1ccc(C(C)(C)C)cc1 (stereo unspecified) | –
3.31 | COCCOC1(c2ccccc2)c2ccccc2C(=O)N1Cc1ccccc1 (stereo unspecified) | –
4.08 | O=C1c2ccccc2C(NCC(O)c2cccc(O)c2)(c2ccccc2)N1Cc1ccccc1 (stereo unspecified) | –
< 3.30 | NC(=O)COC1(c2ccccc2)c2ccccc2C(=O)N1Cc1ccccc1 (stereo unspecified) | –

The next lines start with the compound.

SMILES | pIC50 [1] | also measured
CCCN1C(=O)c2ccccc2C1(OCc1[nH]cnc1C)c1ccc(C(C)(C)C)cc1 (stereo unspecified) | 4.19 | –
COC(=O)COC1(c2ccccc2)c2ccccc2C(=O)N1Cc1ccccc1 (stereo unspecified) | < 3.30 | –
O=C1c2ccccc2C(NCC(O)c2ccc(O)cc2)(c2ccccc2)N1Cc1ccccc1 (stereo unspecified) | 3.64 | –
CCOC(=O)CCC(NC1(c2ccccc2)c2ccccc2C(=O)N1Cc1ccccc1)C(=O)OCC (stereo unspecified) | < 3.30 | –
O=C1c2ccccc2C(OC/C=C/c2ccccc2)(c2ccccc2)N1Cc1ccccc1 (stereo unspecified) | 3.48 | –
CCCOC1(c2ccccc2)c2ccccc2C(=O)N1Cc1ccccc1 (stereo unspecified) | < 3.70 | –
O=C1c2ccccc2C(OCc2ccco2)(c2ccccc2)N1Cc1ccccc1 (stereo unspecified) | < 3.30 | –
CCCOC1(c2ccccc2)c2ccccc2C(=O)N1[C@@H](CCCCN)C(=O)OC (stereo partly specified) | 4.10 | –
O=C1c2ccccc2C(OCCc2ccccc2)(c2ccccc2)N1Cc1ccccc1 (stereo unspecified) | < 3.30 | –
N#CCCNC1(c2ccccc2)c2ccccc2C(=O)N1Cc1ccccc1 (stereo unspecified) | 3.72 | –
CCCN1C(=O)c2ccccc2C1(OCc1cc(OC)c(O)c(OC)c1)c1ccc(Cl)cc1 (stereo unspecified) | – | Activity (SJSA-1 [2]): Dose-dependent effect; Activity (SJSA-1 [3]): Dose-dependent effect; Activity [4]: Dose-dependent effect; Activity (SJSA-1 [5]): inactive
CN(CCOC1(c2ccccc2)c2ccccc2C(=O)N1Cc1ccccc1)c1ccc(C=O)cc1 (stereo unspecified) | 3.72 | –
CC(NC1(c2ccccc2)c2ccccc2C(=O)N1Cc1ccccc1)C(O)c1ccc(O)cc1 (stereo unspecified) | 3.73 | –
O=C1CCCN1CCOC1(c2ccccc2)c2ccccc2C(=O)N1Cc1ccccc1 (stereo unspecified) | 3.41 | –
Cc1ccc([N+](=O)[O-])c(COC2(c3ccccc3)c3ccccc3C(=O)N2Cc2ccccc2)c1 (stereo unspecified) | 3.63 | –
COC(=O)CCNC1(c2ccccc2)c2ccccc2C(=O)N1Cc1ccccc1 (stereo unspecified) | < 3.30 | –
CCCCc1ncc(COC2(c3ccccc3)c3ccccc3C(=O)N2Cc2ccccc2)[nH]1 (stereo unspecified) | 4.11 | –
CCCOC1(c2ccccc2)c2ccccc2C(=O)N1[C@H](C(=O)OC)c1ccc(O)cc1 (stereo partly specified) | 4.05 | –
COc1ccc([C@@H](O)COC2(c3ccccc3)c3ccccc3C(=O)N2Cc2ccco2)cc1 (stereo partly specified) | 3.74 | –
O=C1c2ccccc2C(OCCS(=O)(=O)O)(c2ccccc2)N1Cc1ccccc1 (stereo unspecified) | 3.46 | –

SMILES | pIC50 [1] | also measured
O=Cc1ccc(COC2(c3ccccc3)c3ccccc3C(=O)N2Cc2ccccc2)o1 (stereo unspecified) | 4.01 | –
COC(=O)C(Cc1ccc(O)cc1)N1C(=O)c2ccccc2C1(OCCN(CCC#N)c1ccccc1)c1ccccc1 (stereo unspecified) | 4.06 | –
O=C1c2ccccc2C(NC(CO)C(O)c2ccccc2)(c2ccccc2)N1Cc1ccccc1 (stereo unspecified) | 4.07 | –
O=C1c2ccccc2C(OCc2ccc(Cl)c([N+](=O)[O-])c2)(c2ccccc2)N1Cc1ccccc1 (stereo unspecified) | 3.69 | –
O=C1c2ccccc2C(OCCN2CCOCC2)(c2ccccc2)N1Cc1ccccc1 (stereo unspecified) | < 3.30 | –
O=C1c2ccccc2C(N[C@@H](CO)[C@@H](O)c2ccccc2)(c2ccccc2)N1Cc1ccccc1 (stereo partly specified) | 4.07 | –
CCCN1C(=O)c2ccccc2C1(OCc1cc([N+](=O)[O-])c(C)c([N+](=O)[O-])c1)c1ccc(OCOCC[Si](C)(C)C)cc1 (stereo unspecified) | 3.99 | –
C[Si](C)(C)CCOCOc1ccc(C2(OCCCO)c3ccccc3C(=O)N2Cc2ccccc2)cc1 (stereo unspecified) | 3.32 | –
COC(=O)[C@@H](C)COC1(c2ccccc2)c2ccccc2C(=O)N1Cc1ccccc1 (stereo partly specified) | 3.48 | –
CCCOC1(c2ccccc2)c2ccccc2C(=O)N1CCCC(OC)OC (stereo unspecified) | 4.15 | –
CCCN1C(=O)c2ccccc2C1(OCCS(C)(=O)=O)c1ccc(C(C)(C)C)cc1 (stereo unspecified) | 3.54 | –
O=C1c2ccccc2C(OCCOc2ccccc2O)(c2ccccc2)N1Cc1ccccc1 (stereo unspecified) | 3.66 | –
O=C1c2ccccc2C(NCCO)(c2ccccc2)N1Cc1ccccc1 (stereo unspecified) | < 3.30 | –
CC(=O)NCCNC1(c2ccccc2)c2ccccc2C(=O)N1Cc1ccccc1 (stereo unspecified) | < 3.30 | –
O=C1c2ccccc2C(OCCCO)(c2ccc(Cl)cc2)N1Cc1ccccc1 (stereo unspecified) | – | Activity (SJSA-1 [2]): Dose-dependent effect; Activity (SJSA-1 [3]): Dose-dependent effect; Activity [4]: Dose-dependent effect; Activity (SJSA-1 [5]): inactive
O=C(NCCOC1(c2ccccc2)c2ccccc2C(=O)N1Cc1ccccc1)c1ccc(O)cc1O (stereo unspecified) | 4.02 | –
CCCN1C(=O)c2ccccc2C1(OCCNC(=O)c1ccccc1O)c1ccc(C(C)(C)C)cc1 (stereo unspecified) | 4.15 | –
CCCOC1(c2ccccc2)c2ccccc2C(=O)N1Cc1ccc(OC)cc1 (stereo unspecified) | 3.38 | –
O=C(NCCOC1(c2ccccc2)c2ccccc2C(=O)N1Cc1ccccc1)c1ccncc1 (stereo unspecified) | 3.56 | –
